Data taken from US20260232616A1, “USE OF SIVELESTAT IN ANALGESIA” (SHANGHAI HUILUN PHARMACEUTICAL CO., LTD., priority 2023, published 2026).
Marks after values point to notes of the source that are not given here.

Test system: rat model of postoperative pain
Assay: Mechanical allodynia testing in a rat model of postoperative pain (hind paw incision)
Type: in vivo
Details: for Mechanical allodynia threshold (PWT (g)): single dose
[1] = Sivelestat sodium 100 mg/kg IP, 0.5 h
[2] = Sivelestat sodium 100 mg/kg IP, 1 h
[3] = Sivelestat sodium 100 mg/kg IP, 2 h
[4] = Sivelestat sodium 150 mg/kg IP, 0.5 h
[5] = Sivelestat sodium 150 mg/kg IP, 1 h
[6] = Sivelestat sodium 150 mg/kg IP, 2 h
[7] = Sivelestat sodium 150 mg/kg IP, 6 h
[8] = Sivelestat sodium 200 mg/kg IP, 0.5 h
[9] = Sivelestat sodium 200 mg/kg IP, 1 h
[10] = Sivelestat sodium 200 mg/kg IP, 2 h
[11] = Sivelestat sodium 300 mg/kg IP, 0.5 h
[12] = Sivelestat sodium 300 mg/kg IP, 1 h
[13] = Sivelestat sodium 300 mg/kg IP, 2 h

## CC(C)(C)C(=O)Oc1ccc(S(=O)(=O)Nc2ccccc2C(=O)NCC(=O)O)cc1 [Sivelestat sodium, sivelestat sodium]
[1]
  % MPE (anti-allodynic effect): 25.2* %
  Mechanical allodynia threshold (PWT (g)): 5.5 g
[2]
  % MPE (anti-allodynic effect): 42.4*** %
  Mechanical allodynia threshold (PWT (g)): 7.8 g
[3]
  % MPE (anti-allodynic effect): 44.1*** %
  Mechanical allodynia threshold (PWT (g)): 8.3 g
[4]
  % MPE (anti-allodynic effect): 31.4*** %
  Mechanical allodynia threshold (PWT (g)): 6.3 g
[5]
  % MPE (anti-allodynic effect): 51.1*** %
  Mechanical allodynia threshold (PWT (g)): 8.9 g
[6]
  % MPE (anti-allodynic effect): 48.4*** %
  Mechanical allodynia threshold (PWT (g)): 8.8 g
[7]
  % MPE (anti-allodynic effect): 11.3%
  Mechanical allodynia threshold (PWT (g)): 3.9 g
[8]
  % MPE (anti-allodynic effect): 32.6*** %
  Mechanical allodynia threshold (PWT (g)): 6.4 g
[9]
  % MPE (anti-allodynic effect): 55.1*** %
  Mechanical allodynia threshold (PWT (g)): 9.4 g
[10]
  % MPE (anti-allodynic effect): 45.3*** %
  Mechanical allodynia threshold (PWT (g)): 8.4 g
[11]
  % MPE (anti-allodynic effect): 37.5*** %
  Mechanical allodynia threshold (PWT (g)): 7.0 g
[12]
  % MPE (anti-allodynic effect): 49*** %
  Mechanical allodynia threshold (PWT (g)): 8.6 g
[13]
  % MPE (anti-allodynic effect): 52.6*** %
  Mechanical allodynia threshold (PWT (g)): 9.3 g
Rat postoperative pain model, conclusion from Embodiment 1
  duration of a high level of analgesic efficacy: more than 6 h
